From paper PMC5308256 (2017)

Columns and labels:
[1] = tested on: A12-MB-A12 (FAM/DABCYL-labeled) (DNA, hairpin) AAAAAAAAAAAACATCATAGTCGAGTGTCCAGGGAAAAAAAAAAAA; test: FAM/DABCYL fluorescence quenching titration; conditions: 10 mM HEPES pH 7.3; 10 nM DNA; saturation at 0.6 μM coralyne
[2] = tested on: label-free A12-MB-A12 (DNA, hairpin) AAAAAAAAAAAACATCATAGTCGAGTGTCCAGGGAAAAAAAAAAAA; test: SYBR Green I fluorescence enhancement on folding; conditions: 10 mM HEPES pH 7.3; 0.5 μM DNA; 160 nM SYBR Green I
[3] = tested on: FAM-A40-DABCYL (A40) (DNA, hairpin) AAAAAAAAAAAAAAAAAAAAAAAAAAAAAAAAAAAAAAAA; test: FAM/DABCYL fluorescence quenching titration; conditions: 10 mM HEPES pH 7.3; 10 nM DNA; saturation at 0.6 μM coralyne

SMILES: COc1cc2cc3c4cc(OC)c(OC)cc4cc[n+]3c(C)c2cc1OC
- Kd [1]: 500 nM
- binding [2]: yes
- binding [3]: yes
